In US20230312605A1, “PYRROLO[2,1-F][1,2,4]TRIAZINES AND PREPARATION AND USES THEREOF” (BioSplice Therapeutics, Inc., priority 2021, published 2023) one finds EC50 data, which are given here for 33 compounds.

The assay addresses recombinant DYRK1A kinase (Homo sapiens (Human), UniProt Q13627). Description: DYRK1A kinase assay (Ser/Thr 18 peptide Z-lyte FRET assay). Particulars: recombinant DYRK1A 0.25 µg/mL, ATP 15 µM, Ser/Thr peptide 18 4 µM, one hour at room temperature; table head prints EC50, method says IC50. The class given is biochemical. The method, then: Representative compounds were screened using the assay procedure for DYRK1A kinase activity as described below.
Each compound was dissolved in DMSO as a 10 mM stock and used to prepare compound source plates. Serial dilution (1:3, 11-point dose-response curves from 10 µM to 0.00016 µM) and compound transfer was performed using the ECHO 550 (Labcyte, Sunnyvale, CA) into 1536-well black-walled round bottom plates (Corning).
The DYRK1A kinase assay was run using the Ser/Thr 18 peptide Z-lyte assay kit according to manufacturer’s instructions (Life Technologies- a Division of Thermo-Fisher). This is a non-radioactive assay using fluorescence resonance energy transfer (FRET) between coumarin and fluorescein to detect kinase activity which is represented as a ratio of coumarin emission/fluorescein emission.
Briefly, recombinant DYRK1A kinase, ATP and Ser/Thr peptide 18 were prepared in 1X Kinase buffer to final concentrations of 0.25 µg/mL, 15 µM, and 4 µM respectively. The mixture was allowed to incubate with the representative compounds for one hour at room temperature. All reactions were performed in duplicate. Unphosphorylated (“0% Control”) and phosphorylated (“100% control”) forms of Ser/Thr 18 served as control reactions. Additionally, an 11-point dose-response curve of Staurosporine (1uM top) was run to serve as a positive compound control.
After incubation, Development Reagent A was diluted in Development Buffer then added to the reaction and allowed to further incubate for one hour at room temperature. The plate was read at Ex 400 Em 455 to detect the coumarin signal and Ex 400 Em 520 to measure the signal (EnVision Multilabel Plate Reader, PerkinElmer).
The Emission ratio (Em) was calculated as a ratio of the coumarin (C) emission signal (at 445 nm)/Fluorescein (F) emission signal (at 520 nm). The percent phosphorylation was then calculated using the following formula: [1 — ((Em ratio X F100%)—C100%)/ ((C0%—C100%) + (Em ratio X (F100% - F0%)))]. Dose-response curves were generated, and inhibitory concentration (IC50) values were calculated using non-linear regression curve fit in the Dotmatics’ Studies Software (Bishops Stortford, UK).
As for “1-(4-((5-(1-(2,2-Difluoroethyl)-2-methyl-1H-imidazo[4,5-b]pyridin-6-yl)pyrrolo[2, 1-f] [1,2,4]triazin-2-yl)amino)piperidin- 1-yl)ethan-1 -one [Compound 1910]”, the EC50 amounted to 4 nM.
The value for `CC(C)CNc1ncc2c(-c3ccc4nccn4c3)ccn2n1` [Compound 2, 5-(Imidazo[1,2-a]pyridin-6-yl)-N-isobutylpyrrolo[2,1-f][1,2,4]triazin-2-amine] was 41 nM; that for `CC(F)(F)CNc1ncc2c(-c3ccc4nccn4c3)ccn2n1` [Compound 4, N-(2,2-Difluoropropyl)-5-(imidazo [1,2-a]pyridin-6-yl)pyrrolo[2,1-f][1,2,4] triazin-2-amine] was 73 nM; that for `COCCNc1ncc2c(-c3ccc4nccn4c3)ccn2n1` [Compound 9, 5-(Imidazo[1,2-a]pyridin-6-yl)-N-(2-methoxyethyl)pyrrolo[2,1-f][1,2,4] triazin-2-amine] was 81 nM.
With `CC(C)OCCNc1ncc2c(-c3ccc4nccn4c3)ccn2n1` [Compound 11, 5-(Imidazo[1,2-a]pyridin-6-yl)-N-(2-isopropoxyethyl)pyrrolo[2,1-f][1,2,4] triazin-2-amine], the EC50 came out at 116 nM.
Take `CC1(CNc2ncc3c(-c4ccc5nccn5c4)ccn3n2)CC1` [Compound 12, 5-(Imidazo[1,2-a]pyridin-6-yl)-N-((1-methylcyclopropyl)methyl)pyrrolo[2,1-f][1,2,4]triazin-2-amine]: the concentration giving a half-maximal response (EC50) stood at 45 nM.
The value for `c1cn2cc(-c3ccn4nc(NCC5CC5)ncc34)ccc2n1` [Compound 16, N-(Cyclopropylmethyl)-5-(imidazo[1,2-a]pyridin-6-yl)pyrrolo[2,1-f][1,2,4] triazin-2-amine] was 48 nM; that for `c1cn2cc(-c3ccn4nc(NCC5COC5)ncc34)ccc2n1` [Compound 20] was 67 nM; that for `c1cn2cc(-c3ccn4nc(NCC5CCCO5)ncc34)ccc2n1` (stereo not drawn) [Compound 21, 5-(Imidazo[1,2-a]pyridin-6-yl)-N-((tetrahydrofuran-2-yl)methyl)pyrrolo[2,1-f][1,2,4]triazin-2-amine] was 61 nM.
Take `CN1CC(Nc2ncc3c(-c4ccc5nccn5c4)ccn3n2)C1` [Compound 64, 5-(Imidazo[1,2-a]pyridin-6-yl)-N-(1-methylazetidin-3-yl)pyrrolo[2,1-f] [1,2,4]triazin-2-amine]: the EC50 came to 192 nM.
For `CN1CCC(Nc2ncc3c(-c4ccc5nccn5c4)ccn3n2)CC1` [Compound 66, 5-(Imidazo[1,2-a]pyridin-6-yl)-N-(1-methylpiperidin-4-yl)pyrrolo[2,1-f] [1,2,4]triazin-2-amine], the EC50 turned out to be 264 nM.
Then `c1cn2cc(-c3ccn4nc(NC5CCOCC5)ncc34)ccc2n1` [Compound 67, 5-(Imidazo[1,2-a]pyridin-6-yl)-N-(tetrahydro-2H-pyran-4-yl)pyrrolo[2,1-f] [1,2,4]triazin-2-amine], with 40 nM.
As to `CC(C)(F)CNc1ncc2c(-c3ccc4ncc(C(=O)N5CCCC5)n4c3)ccn2n1` [Compound 74, (6-(2-((2-Fluoro-2-methylpropyl)amino)pyrrolo[2,1-f][1,2,4]triazin-5-yl)imidazo[1,2-a]pyridin-3-yl)(pyrrolidin-1-yl)methanone], the EC50 came out at 5100 nM.
The value for `CC(C)(F)CNc1ncc2c(-c3ccc4nccn4n3)ccn2n1` [Compound 145, N-(2-Fluoro-2-methylpropyl)-5-(imidazo [1,2-b]pyridazin-6-yl)pyrrolo[2,1-f] [1,2,4]triazin-2-amine] was 45 nM; that for `CC(C)Nc1ncc2c(-c3cnc4nccn4c3)ccn2n1` [Compound 214, 5-(Imidazo[1,2-a]pyrimidin-6-yl)-N-isopropylpyrrolo[2,1-f][1,2,4]triazin-2-amine] was 33 nM.
As for `CC(C)CNc1ncc2c(-c3cnc4nccn4c3)ccn2n1` [Compound 215, 5-(Imidazo[1,2-a]pyrimidin-6-yl)-N-isobutylpyrrolo[2,1-f][1,2,4]triazin-2-amine], the EC50 amounted to 6 nM.
Then `FC(F)(F)CNc1ncc2c(-c3cnc4nccn4c3)ccn2n1` [Compound 218, 5-(Imidazo[1,2-a]pyrimidin-6-yl)-N-(2,2,2-trifluoroethyl)pyrrolo[2,1-f] [1,2,4]triazin-2-amine], with 13 nM; and `C[C@@H](Nc1ncc2c(-c3cnc4nccn4c3)ccn2n1)C(F)(F)F` [Compound 219, (R)-5-(Imidazo[1,2-a]pyrimidin-6-yl)-N-(1,1,1-trifluoropropan-2-yl)pyrrolo [2,1-f][1,2,4]triazin-2-amine], with 14 nM; and `FC(F)(F)CCNc1ncc2c(-c3cnc4nccn4c3)ccn2n1` [Compound 220, 5-(Imidazo[1,2-a]pyrimidin-6-yl)-N-(3,3,3-trifluoropropyl)pyrrolo[2,1-f] [1,2,4]triazin-2-amine], with 14 nM.
Regarding `CC(C)(CNc1ncc2c(-c3cnc4nccn4c3)ccn2n1)C(F)(F)F` [Compound 221, 5-(Imidazo[1,2-a]pyrimidin-6-yl)-N-(3,3,3-trifluoro-2,2-dimethylpropyl) pyrrolo[2,1-f][1,2,4]triazin-2-amine], the EC50 came to 29 nM.
The value for `COC[C@@H](C)Nc1ncc2c(-c3cnc4nccn4c3)ccn2n1` [Compound 223, (R)-5-(Imidazo[1,2-a]pyrimidin-6-yl)-N-(1-methoxypropan-2-yl)pyrrolo[2,1-f][1,2,4]triazin-2-amine] was 101 nM; that for `CC1(CNc2ncc3c(-c4cnc5nccn5c4)ccn3n2)CC1` [Compound 225, 5-(Imidazo[1,2-a]pyrimidin-6-yl)-N-((1-methylcyclopropyl)methyl)pyrrolo [2,1-f][1,2,4]triazin-2-amine] was 11 nM; that for `FC(F)(F)C1(CNc2ncc3c(-c4cnc5nccn5c4)ccn3n2)CC1` [Compound 226, 5-(Imidazo[1,2-a]pyrimidin-6-yl)-N-((1-(trifluoromethyl)cyclopropyl)methyl)pyrrolo[2,1-f][1,2,4]triazin-2-amine] was 11 nM.
The value for `FC1(CNc2ncc3c(-c4cnc5nccn5c4)ccn3n2)CCC1` [Compound 227, N-((1-Fluorocyclobutyl)methyl)-5-(imidazo[1,2-a]pyrimidin-6-yl)pyrrolo [2,1-f][1,2,4]triazin-2-amine] was 4 nM.
Then `c1cn2cc(-c3ccn4nc(NCC5CC5)ncc34)cnc2n1` [Compound 229, N-(Cyclopropylmethyl)-5-(imidazo[1,2-a]pyrimidin-6-yl)pyrrolo[2,1-f] [1,2,4]triazin-2-amine], with 9 nM; and `C[C@H](Nc1ncc2c(-c3cnc4nccn4c3)ccn2n1)C1CC1` [Compound 230, (S)-N-(1-Cyclopropylethyl)-5-(imidazo[1,2-a]pyrimidin-6-yl)pyrrolo[2,1-f] [1,2,4]triazin-2-amine], with 58 nM; and `C[C@@H](Nc1ncc2c(-c3cnc4nccn4c3)ccn2n1)C1CC1` [Compound 231, (R)-N-(1-Cyclopropylethyl)-5-(imidazo[1,2-a]pyrimidin-6-yl)pyrrolo[2,1-f] [1,2,4]triazin-2-amine], with 28 nM.
Take `FC(F)(CNc1ncc2c(-c3cnc4nccn4c3)ccn2n1)C1CC1` [Compound 232, N-(2-Cyclopropyl-2,2-difluoroethyl)-5-(imidazo[1,2-a]pyrimidin-6-yl) pyrrolo[2,1-f][1,2,4]triazin-2-amine]: the EC50 is 9 nM.
Then `c1cn2cc(-c3ccn4nc(NC5CCC5)ncc34)cnc2n1` [Compound 235, N-Cyclobutyl-5-(imidazo[1,2-a]pyrimidin-6-yl)pyrrolo[2,1-f][1,2,4]triazin-2-amine], with 377 nM.
With `FC1(F)CC(Nc2ncc3c(-c4cnc5nccn5c4)ccn3n2)C1` [Compound 236, N-(3,3-Difluorocyclobutyl)-5-(imidazo[1,2-a]pyrimidin-6-yl)pyrrolo[2,1-f] [1,2,4]triazin-2-amine], the EC50 stood at 9 nM.
The value for `CC1(C)CC(Nc2ncc3c(-c4cnc5nccn5c4)ccn3n2)C1` [Compound 237, N-(3,3-Dimethylcyclobutyl)-5-(imidazo[1,2-a]pyrimidin-6-yl)pyrrolo[2,1-f] [1,2,4]triazin-2-amine] was 3 nM.
Then `CO[C@H]1C[C@@H](Nc2ncc3c(-c4cnc5nccn5c4)ccn3n2)C1` [Compound 239, 5-(Imidazo[1,2-a]pyrimidin-6-yl)-N-(cis-3-methoxycyclobutyl)pyrrolo[2,1-f] [1,2,4]triazin-2-amine], with 6 nM.
Then `CO[C@H]1C[C@H](Nc2ncc3c(-c4cnc5nccn5c4)ccn3n2)C1` [Compound 240, 5-(Imidazo[1,2-a]pyrimidin-6-yl)-N-(trans-3-methoxycyclobutyl)pyrrolo [2,1-f] [1,2,4]triazin-2-amine], with 14 nM.

A word on the EC50: it is the concentration giving half of the maximal effect.
